Patent US20090175995A1, “CONTROL OF FLAVOR CHARACTERISTICS OF AND INDICATOR OF FRESHNESS IN FRUIT JUICE” (TROPICANA PRODUCTS, INC., priority 2007, published 2009)
Like-named read-outs stand apart in the source and are kept apart here.

Experiments:
[1] = system: Bitter Taste; experiment: Bitter taste recognition threshold, trained sensory panel; assay type: in vivo, human
Experimental: To study the influence of the chirality of C(17) on the sensory activity of these limonoids, bitter threshold concentrations were determined for limonin and C17-epilimonin.
(§1) To make these evaluations, eleven assessors (four women and seven men, age 23-39 years), who participated for at least two years in weekly training sessions, determined taste recognition threshold concentrations in bottled water (pH 5.1) by means of a three-alternative forced-choice method with ascending concentrations of the stimulus following the procedure reported previously in Stark, T.; Barenther, S.; Hofmann, T. (2005) J. Agric. Food Chem. 53:5407-5418.

[2] = system: Astringency Taste; experiment: Astringency taste threshold, sensory; assay type: in vivo, human
Excerpt: The inventors have discovered that, as with bitterness, a plurality of compounds present in orange juice below the astringency threshold contributes to the astringent mouth feel of the juice.
as §1

[3] = Incubation of limonin in aqueous solution, formation of isolimonin; assay type: physicochemical; settings: pH of 3
[4] = Non-enzymatic release of limonin from limonin-17-β-D-glucopyranoside in aqueous solution on storage (HPLC-MS/MS); assay type: physicochemical; settings: for limonin released from the glucopyranoside: up to 14 weeks in the dark; for limonin released from its precursor (yield): 14 weeks in the dark
Experimental: To investigate the putative non-enzymatic release of limonin from limonin-17-β-D-glucopyranoside during storage of orange juice, aqueous solutions of the glucopyranoside adjusted to the pH value of a freshly squeezed orange juice (pH 3.5) or to the range of pH values found for orange juice concentrates (pH 2.0 and 3.0) were held at 20° C. for up to 14 weeks in the dark. At regular time intervals, aliquots were withdrawn from the model solutions and analyzed for the amount of limonin liberated from the glucopyranoside by means of HPLC-MS/MS operating in the MRM mode. […] For example, 0.85% mol of limonin was released from the glucopyranoside when maintained at pH 2.0, whereas at pH 3.5 only 0.25% of the bitter compound was generated.
In order to investigate the influence of the temperature on limonin generation, aqueous solutions of the glucopyranoside adjusted to pH 3.0 were maintained at 4, 20, and 30° C. for up to 14 weeks in the dark. At regular time intervals, the amounts of limonin were determined by means of HPLC-MS/MS operating in the MRM mode. […] For example, limonin was released from its precursor in a yield of nearly 4.0% when incubated at 30° C., whereas only 0.2% of the bitter compound was detectable after storing the precursor solution at 4° C. for 14 weeks.
In particular, aqueous solutions of limonin-17-β-D-glucopyranoside (0.35 mg/L) adjusted to pH value of 2.0, 3.0, and 3.5, respectively, by adding trace amounts of hydrochloric acid (1 mol/L) were maintained at different temperatures (4, 20, 30° C.) for up to 14 weeks in closed vials in the dark. At regular time intervals, samples (5 μL) were withdrawn with a syringe and were analyzed for the generation of limonin by means of LC-MS/MS on a Synergi Fusion, 150×2 mm i.d., 4 μm column (Phenomenex). To achieve this, chromatography was performed with a flow rate of 250 μL/min starting with a mixture (80/20, v/v) of 0.1% aqueous formic acid and acetonitrile, increasing the acetonitrile content to 40% within 10 min, then to 80% within 5 min, held for 5 min, and, finally, to 100% within 5 min. Using negative electrospray ionization, limonin was analyzed in the multiple reaction monitoring (MRM) mode using the mass transition m/z 469→229. Quantitative analysis was performed by comparing the peak areas obtained for the mass trace with those of defined standard solutions of limonin in methanol.

[5] = Homo sapiens; read-out: Bitter Taste Threshold
[6] = Homo sapiens; read-out: Astringency Taste Threshold

Molecule | Bitter Taste Threshold ([1]; in vivo) | Astringency Taste Threshold ([2]; in vivo) | minimal effective concentration [1, 5] | minimal effective concentration [2, 6] | other results
5,6,7,3′,4′-pentamethoxyflavoneglucoside | 61 µmol/L | 21 µmol/L |  |  | 
5,6,7,8,3′,4′-hexamethoxyflavoneglucoside | 78 µmol/L | 20 µmol/L |  |  | 
COc1ccc(-c2oc3cc(OC)c(OC)c(OC)c3c(=O)c2OC)cc1OC [3,5,6,7,3′,4′-hexamethoxyflavone] |  |  | 19 µM | 9 µM | 
COc1ccc(-c2oc3c(OC)c(OC)c(OC)c(OC)c3c(=O)c2OC)cc1OC [3,5,6,7,8,3′,4′-heptamethoxyflavone] |  |  | 24 to 31 µM | 4 to 5 µM | 
COc1ccc(-c2oc3c(OC)c(OC)cc(OC)c3c(=O)c2OC)cc1OC [3,5,7,8,3′,4′-hexamethoxyflavone] |  |  | > 250 µM | 125 µM | 
COc1cc(-c2cc(=O)c3c(OC)c(OC)c(OC)c(OC)c3o2)ccc1O [4′-hydroxy-3′,5,6,7,8-pentamethoxyflavone] |  |  | 25 µM | 6 µM | 
COc1ccc(-c2oc3cc(OC)c(OC)c(OC)c3c(=O)c2O[C@@H]2O[C@H](CO)[C@@H](O)[C@H](O)[C@H]2O)cc1OC [5,6,7,3′,4′-pentamethoxy-flavone-3-O-β-D-glucopyranoside] | 61 µmol/L | 21 µmol/L |  |  | 
COc1ccc(-c2cc(=O)c3c(OC)c(OC)c(OC)cc3o2)cc1OC [5,6,7,3′,4′-pentamethoxyflavone] |  |  | 56 µM | 24 µM | 
COc1ccc(-c2cc(=O)c3c(OC)c(OC)c(OC)cc3o2)cc1 [5,6,7,4′-tetramethoxyflavone] |  |  |  |  | minimal effective concentration ([2]; Homo sapiens, read-out: Astringency Taste Threshold): 31 µM
COc1ccc(-c2oc3c(OC)c(OC)c(OC)c(OC)c3c(=O)c2O[C@@H]2O[C@H](CO)[C@@H](O)[C@H](O)[C@H]2O)cc1OC [5,6,7,8,3′,4′-Hexamethoxyflavone-3-O-β-D-glucopyranoside] | 78 µmol/L | 20 µmol/L |  |  | 
COc1ccc(-c2cc(=O)c3c(OC)c(OC)c(OC)c(OC)c3o2)cc1OC [5,6,7,8,3′,4′-hexamethoxyflavone] |  |  | 103 µM | 51 µM | 
COc1ccc(-c2cc(=O)c3c(OC)c(OC)c(OC)c(OC)c3o2)cc1 [5,6,7,8,4′-pentamethoxyflavone] |  |  | 93 µM | 19 µM | 
COc1ccc(-c2cc(=O)c3c(OC)cc(OC)c(OC)c3o2)cc1OC [5,7,8,3′,4′-pentamethoxyflavone] |  |  | 32 µM | 13 µM | 
COc1ccc(-c2cc(=O)c3c(OC)cc(OC)c(OC)c3o2)cc1 [5,7,8,4′-tetramethoxyflavone] |  |  | > 120 µM | 44 µM | 
COc1ccc2c(=O)cc(-c3ccc(OC)c(OC)c3)oc2c1 [7,3′,4′-trimethoxyflavone] |  |  | > 400 µM | 15 µM | 
COc1ccc(-c2cc(=O)c3ccc(OC)c(OC)c3o2)cc1OC [7,8,3′,4′-tetramethoxyflavone] |  |  | > 400 µM | 44 µM | 
CC1(C)OC(=O)C[C@H](O)[C@]2(C)[C@H]3CC[C@@]4(C)[C@H](c5ccoc5)OC(=O)[C@H]5O[C@]54[C@]3(C)C(=O)C[C@@H]12 [Deacetylnomilin] | >106 µmol/L | 13.2 µmol/L |  |  | 
CC1(C)O[C@H]2CC(=O)OC[C@]23[C@H]2CC[C@@]4(C)[C@H](c5ccoc5)OC(=O)[C@H]5O[C@]54[C@]2(C)C(=O)C[C@@H]13 [Limonin, reference compound] |  |  | 4 µM | 4 µM | bitter threshold concentration ([1]; bottled water pH 5.1, three-alternative forced-choice, eleven assessors): 4.0 µmol/L; times more bitter than caffeine ([1]; relative to caffeine): ~200 times; times more bitter than catechin ([1]; relative to catechin): 150 times; formation of isolimonin on incubation (direct epimerization) [3]: does not produce significant quantity of isolimonin
CC1(C)O[C@H]2CC(=O)OC[C@]23[C@H]2CC[C@@](C)([C@@H](O[C@@H]4O[C@H](CO)[C@@H](O)[C@H](O)[C@H]4O)c4ccoc4)[C@@]4(O[C@@H]4C(=O)O)[C@]2(C)C(=O)C[C@@H]13 [Limonin-17-β-D-glucopyranoside] | 106 µmol/L | 17 µmol/L |  |  | limonin released from the glucopyranoside ([4]; pH 2.0, 20° C.): 0.85 % mol; limonin released from its precursor (yield) ([4]; pH 3.0, 4° C.): 0.2%; limonin released from its precursor (yield) ([4]; pH 3.0, 30° C.): ~4.0%; limonin released from the glucopyranoside ([4]; pH 3.5, 20° C.): 0.25%
CC(=O)O[C@H]1CC(=O)OC(C)(C)[C@@H]2CC(=O)[C@]3(C)[C@H](CC[C@@]4(C)[C@H](c5ccoc5)OC(=O)[C@H]5O[C@]543)[C@@]12C [Nomilin] |  |  |  |  | minimal effective concentration ([1]; Homo sapiens, read-out: Bitter Taste Threshold): 13 µM; times more bitter than caffeine ([1]; relative to caffeine): ~150 times; times more bitter than catechin ([1]; relative to catechin): 45 times
C17-epilimonin [Isolimonin] |  |  |  |  | bitter threshold concentration ([1]; water; bottled water pH 5.1, three-alternative forced-choice, eleven assessors): 10.0 µg/L; Astringency Taste Threshold [2]: 10 mg/L
Deacetylnomilinic acid-17-β-D-glucopyranoside | 68 µmol/L | 27 µmol/L |  |  | 
Epiisoobacunoic acid 17-β-D-glucopyranoside | 42 µmol/L | 16 µmol/L |  |  | 
Nomilin acid β-glpc | >800 µmol/L |  |  |  | 
Nomilin β-glpc | >700 µmol/L |  |  |  | 
Obacunon β-glpc | 49 µmol/L |  |  |  | 
